From ChEMBL document CHEMBL2057068, “Quinolylhydrazones as novel inhibitors of Plasmodium falciparum serine protease PfSUB1” (Bioorg Med Chem Lett, 2012)

How the values were obtained:
[1] = target: T1, Subtilisin-like protease 1 (Plasmodium falciparum) (UniProt O61142); experiment: Inhibition of Plasmodium falciparum SUB1 assessed as residual hydrolytic activity at 50 uM by fluorimetric assay
T1 sequence (whole entry): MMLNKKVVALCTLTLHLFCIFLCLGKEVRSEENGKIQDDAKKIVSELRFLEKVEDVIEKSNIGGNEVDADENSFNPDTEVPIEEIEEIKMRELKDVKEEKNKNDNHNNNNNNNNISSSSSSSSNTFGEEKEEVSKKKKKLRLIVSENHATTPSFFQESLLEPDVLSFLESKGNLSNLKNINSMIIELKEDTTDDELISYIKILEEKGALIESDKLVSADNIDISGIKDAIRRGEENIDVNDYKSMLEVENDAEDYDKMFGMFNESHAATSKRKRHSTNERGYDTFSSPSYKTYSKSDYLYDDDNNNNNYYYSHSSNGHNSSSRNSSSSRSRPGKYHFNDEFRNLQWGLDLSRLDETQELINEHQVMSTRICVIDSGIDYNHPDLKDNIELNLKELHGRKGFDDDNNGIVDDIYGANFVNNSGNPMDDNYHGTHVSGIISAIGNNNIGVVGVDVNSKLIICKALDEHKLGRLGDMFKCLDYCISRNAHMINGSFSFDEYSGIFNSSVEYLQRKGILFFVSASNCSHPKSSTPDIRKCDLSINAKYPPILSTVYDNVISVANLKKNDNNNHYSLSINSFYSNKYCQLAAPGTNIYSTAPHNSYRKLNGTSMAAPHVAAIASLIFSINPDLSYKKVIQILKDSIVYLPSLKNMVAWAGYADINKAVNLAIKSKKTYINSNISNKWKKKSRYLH

[2] = target: T2, Subtilisin-like protease 1 (Plasmodium falciparum, UniProt O61142); experiment: Inhibition of Plasmodium falciparum SUB1 by fluorimetric assay
T2 sequence (O61142 whole entry): T1 sequence (whole entry)

| Activity [1] [%] | IC50 [2] [µM] | SMILES |
| --- | --- | --- |
| 73.9 | – | Cc1cc(N/N=C/c2ccc(/C(N)=N/O)cc2)c2cc3c(cc2n1)OCO3 |
| 27.2 | 20 | Cc1cc(N/N=C/c2ccc([N+](=O)[O-])cc2)c2cc3c(cc2n1)OCO3 |
| 29.2 | 40 | Cc1cc(N/N=C/c2ccc(C#N)cc2)c2cc3c(cc2n1)OCO3 |
| 77.9 | – | Cc1cc(N/N=C/c2ccc(Cl)cc2)c2cc3c(cc2n1)OCO3 |
| 97 | – | Cc1cc(N/N=C/c2ccc(F)cc2)c2cc3c(cc2n1)OCO3 |
| 72.2 | – | Cc1cc(N/N=C/c2ccc(NS(C)(=O)=O)cc2)c2cc3c(cc2n1)OCO3 |
| 100 | – | Cc1cc(N/N=C/c2ccccc2C(F)(F)F)c2cc3c(cc2n1)OCO3 |
| 86.1 | – | Cc1cc(N/N=C/c2ccc(C(F)(F)F)cc2)c2cc3c(cc2n1)OCO3 |
| 80.6 | – | O=[N+]([O-])c1ccc(/C=N/Nc2ccnc3ccccc23)cc1 |
| 81.5 | – | N#Cc1ccc(/C=N/Nc2c3c(nc4ccccc24)CCCC3)cc1 |
| 70.9 | – | CC(=O)Nc1ccc(/C=N/Nc2cc(C)nc3cc4c(cc23)OCO4)cc1 |
| 55.8 | > 50 | O=[N+]([O-])c1ccc(/C=N/Nc2c3c(nc4ccccc24)CCCC3)cc1 |
| 85 | – | Cc1cc(N/N=C/c2ccc(C#N)cc2)c2ccccc2n1 |
| 76.4 | – | Cc1cc(N/N=C/c2ccc(S(C)(=O)=O)cc2)c2cc3c(cc2n1)OCO3 |
| 12.3 | 20 | COc1ccc2nc(C)cc(N/N=C/c3ccc([N+](=O)[O-])cc3)c2c1 |
| 97.2 | – | Cc1cc(N/N=C/c2cccc([N+](=O)[O-])c2)c2cc3c(cc2n1)OCO3 |
| 85.5 | – | Cc1cc(NNC(=O)c2ccc(C#N)cc2)c2cc3c(cc2n1)OCO3 |
| 46.7 | – | O=C(NNc1nc2ccccc2[nH]1)c1ccc([N+](=O)[O-])cc1 |

| Activity [1] [%] | IC50 [2] [µM] | SMILES |
| --- | --- | --- |
| 75.6 | – | CCOC(OCC)c1ccc(/C=N/Nc2cc(C)nc3cc4c(cc23)OCO4)cc1 |
| 85 | – | COC(=O)c1ccc(/C=N/Nc2cc(C)nc3cc4c(cc23)OCO4)cc1 |
| 60.3 | – | C/C(=N\Nc1cc(C)nc2cc3c(cc12)OCO3)c1ccc([N+](=O)[O-])cc1 |
| 64.4 | – | Cc1cc(NNC(=O)c2ccc([N+](=O)[O-])cc2)c2cc3c(cc2n1)OCO3 |
| 32.4 | 50 | COc1ccc2nccc(N/N=C/c3ccc([N+](=O)[O-])cc3)c2c1 |
| 38.6 | 40 | Cc1cc(N/N=C/c2ccccc2[N+](=O)[O-])c2cc3c(cc2n1)OCO3 |
| 84.6 | – | O=[N+]([O-])c1ccc(/C=N/Nc2ccncc2)cc1 |
| 75.5 | – | Cc1cc(N/N=C/c2ccc(C(=O)O)cc2)c2cc3c(cc2n1)OCO3 |
| 68.7 | – | Cc1cc(NNC(=O)c2ccc(S(C)(=O)=O)cc2)c2cc3c(cc2n1)OCO3 |
| 72.2 | – | Cc1cc(/N=C/c2ccc([N+](=O)[O-])cc2)c2cc3c(cc2n1)OCO3 |
| 74.3 | – | N#Cc1ccc(/C=N/Nc2ccnc3ccccc23)cc1 |
| 43.1 | > 50 | O=[N+]([O-])c1ccc(C=NNc2nc3ccccc3[nH]2)cc1 |
| 62.1 | – | Cc1cc(N/N=C/c2ccc(C(F)(F)F)cc2C(F)(F)F)c2cc3c(cc2n1)OCO3 |
| 78.2 | – | Cc1cc(N/N=C/c2ccc(Br)cc2)c2cc3c(cc2n1)OCO3 |
| 77.5 | – | CSc1ccc(/C=N/Nc2cc(C)nc3cc4c(cc23)OCO4)cc1 |
| 92.4 | – | Cc1cc(N/N=C/c2ccc([S+](C)[O-])cc2)c2cc3c(cc2n1)OCO3 (configuration not stated) |
| 86.5 | – | Cc1cc(N/N=C/c2ccc(C=O)cc2)c2cc3c(cc2n1)OCO3 |
